In ChEMBL document CHEMBL1201862, “PubChem BioAssay data set” (2004):
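Values below derive from 48-hour exposures of cells grown in 96-well plates, with endpoints linearly interpolated between the two concentrations bracketing the appropriate inhibition level. GI50 = concentration required for 50% inhibition of growth.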 Calls of active or inactive are those of the source. Rule as the data show it: active = GI50 up to about 1.1 µM and inactive = higher.

What was measured:
Assay in all cases: growth of human tumour cells (NCI), 48 h
HOP-18 = system: HOP-18
KM-20L2 = system: KM-20L2
DLD-1 = system: DLD-1
LXFL 529 = system: LXFL 529
DMS-273 = system: DMS-273
M19-MEL = system: M19-MEL
SNB-78 = system: SNB-78
DMS-114 = system: DMS-114
RXF 631 = system: RXF 631

Structure (SMILES)	GI50 (HOP-18)	GI50 (KM-20L2)	GI50 (DLD-1)	GI50 (LXFL 529)	GI50 (DMS-273)	GI50 (M19-MEL)	GI50 (SNB-78)	GI50 (DMS-114)	GI50 (RXF 631)
Cc1ccc2c(C)c3ccc4ccccc4c3c[n+]2c1.[O-][Cl+3]([O-])([O-])[O-]	12.4 µM (inactive)	33.3 µM (inactive)	37.8 µM (inactive)	9.1 µM (inactive)	11.5 µM (inactive)	4.88 µM (inactive)	41.4 µM (inactive)	10.6 µM (inactive)	
O=C1c2ccccc2C(=O)c2sc(Nc3ccc([N+](=O)[O-])cc3)nc21	4.33 µM (inactive)	22.7 µM (inactive)	4.19 µM (inactive)	1.66 µM (inactive)	7.69 µM (inactive)	1.55 µM (inactive)	10 µM (inactive)	2.49 µM (inactive)	19.5 µM (inactive)
COC(=O)Cc1cc(=O)oc2c1C(=O)CCC2		> 100 µM (inactive)	> 100 µM (inactive)	> 100 µM (inactive)	> 100 µM (inactive)	> 100 µM (inactive)	> 100 µM (inactive)	> 100 µM (inactive)	
CCN(N=O)C1C2(CCCC2)NC(=O)C12CCCC2 (configuration not stated)	> 100 µM (inactive)	> 100 µM (inactive)	> 100 µM (inactive)	> 100 µM (inactive)		> 100 µM (inactive)	> 100 µM (inactive)	> 100 µM (inactive)	> 100 µM (inactive)
O=c1[nH]nc2ccccc2c1Cc1ccccc1	> 100 µM (inactive)	> 100 µM (inactive)	> 100 µM (inactive)		> 100 µM (inactive)	> 100 µM (inactive)	> 100 µM (inactive)	> 100 µM (inactive)	
Nc1cc(O)nc(SC2=NC(N)CC(O)C2)n1 (configuration not stated)	> 100 µM (inactive)	> 100 µM (inactive)	> 100 µM (inactive)	> 100 µM (inactive)	> 100 µM (inactive)	> 100 µM (inactive)	> 100 µM (inactive)	> 100 µM (inactive)	
COC1(OC)C(N(C)C)=C(Cl)C(=O)/C1=C/C=O	> 100 µM (inactive)	> 100 µM (inactive)	> 100 µM (inactive)	> 100 µM (inactive)	> 100 µM (inactive)	74.6 µM (inactive)		> 100 µM (inactive)	
CC1=C(C(=O)Nc2cccc(C(F)(F)F)c2)C(c2ccc(O)cc2)C(C(=O)Nc2cccc(C(F)(F)F)c2)=C(C)N1		18.3 µM (inactive)	20.5 µM (inactive)	18.6 µM (inactive)		16.4 µM (inactive)	23 µM (inactive)	14.8 µM (inactive)	14.8 µM (inactive)
CCCN(CCCN)/[N+]([O-])=N\O	> 100 µM (inactive)	0.4 µM (active)	> 100 µM (inactive)	> 100 µM (inactive)	> 100 µM (inactive)	> 100 µM (inactive)	> 100 µM (inactive)	> 100 µM (inactive)	> 100 µM (inactive)
CC(=O)C1C(=O)N(C(C)C)C[C@@H]2CCC(=O)C[C@H]12 (some centres not stated)			> 100 µM (inactive)	> 100 µM (inactive)	> 100 µM (inactive)	> 100 µM (inactive)	> 100 µM (inactive)	> 100 µM (inactive)	> 100 µM (inactive)
N#Cc1ccc(/C=N/C23CC4CC(CC(C4)C2)C3)cc1		> 100 µM (inactive)			98.2 µM (inactive)	> 100 µM (inactive)	> 100 µM (inactive)	56 µM (inactive)	32.5 µM (inactive)
Nc1ccn(C2(CO)C=C(CO)C(O)C2O)c(=O)n1 (configuration not stated)	> 25.8 µM (inactive)	> 25.8 µM (inactive)	> 25.8 µM (inactive)	> 25.8 µM (inactive)	> 25.8 µM (inactive)	> 25.8 µM (inactive)	> 25.8 µM (inactive)	> 25.8 µM (inactive)	
COc1cc(O)c2c(c1)C(=O)C1=C(C2=O)C(O)C[C@@](C)(O)C1 (some centres not stated)		3.36 µM (inactive)	0.229 µM (active)	0.582 µM (active)	1.57 µM (inactive)	0.452 µM (active)	1.9 µM (inactive)	1.5 µM (inactive)	
O=C(O)c1ccccc1/N=N/c1ccc2oc(=O)c(C(=O)Nc3ccccc3)cc2c1	30.1 µM (inactive)	24.8 µM (inactive)	40.9 µM (inactive)		39 µM (inactive)	33.3 µM (inactive)		25.1 µM (inactive)	
O=C1NC2C(=CC(O)C(O)C2O)c2cc3c(cc21)OCO3 (configuration not stated)	1.48 µM (inactive)	0.305 µM (active)	0.255 µM (active)	0.43 µM (active)	0.436 µM (active)	0.251 µM (active)	0.569 µM (active)	0.43 µM (active)	0.433 µM (active)
Cc1c2n(c(=O)[nH]c1=O)C1OC(CO)C(O2)C1O (configuration not stated)		> 100 µM (inactive)	> 100 µM (inactive)	> 100 µM (inactive)	> 100 µM (inactive)	> 100 µM (inactive)	> 100 µM (inactive)	> 100 µM (inactive)	
COC1OC(C)C(O)CC1OS(=O)(=O)c1ccc(C)cc1 (configuration not stated)	> 100 µM (inactive)	> 100 µM (inactive)		> 100 µM (inactive)	> 100 µM (inactive)	> 100 µM (inactive)	> 100 µM (inactive)	> 100 µM (inactive)	
CC(C)C1CCC/C=C/C=C/C=C/C=C/C(OC2OC(C)C(O)C(N)C2O)CC2OC(O)(CC(O)CC(O)C(O)CCC(=O)O1)CC(O)C2C(=O)O (configuration not stated)	> 52.5 µM (inactive)	> 52.5 µM (inactive)		> 52.5 µM (inactive)		> 52.5 µM (inactive)	> 52.5 µM (inactive)	> 52.5 µM (inactive)	
O=C(c1ccc(Cl)cc1)N(C(=S)N1CCN(c2ccccn2)CC1)C1CCCCC1	> 100 µM (inactive)	74.1 µM (inactive)	81.7 µM (inactive)	75.7 µM (inactive)	34.3 µM (inactive)	> 100 µM (inactive)	> 100 µM (inactive)	34.9 µM (inactive)	
Cc1c(C(=O)/C=C/c2c(Cl)cccc2Cl)c(=O)n(-c2ccccc2)n1C		19.6 µM (inactive)		5.47 µM (inactive)	4.82 µM (inactive)	8.55 µM (inactive)	6.24 µM (inactive)	22.7 µM (inactive)	
